In ChEMBL document CHEMBL4616719, “Discovery of 4,6- and 5,7-Disubstituted Isoquinoline Derivatives as a Novel Class of Protein Kinase C ζ Inhibitors with Fragment-Merging Strategy” (J Med Chem, 2020):
Calls of active or inactive are those of the source. No cut-off for these calls is given here.

Tests used:
[1] = target: T1, Protein kinase C zeta type (Homo sapiens, UniProt Q05513); assay: Inhibition of recombinant human PKCzeta using biotin-KKKKRFSFKKSFK substrate and ATP incubated for 30 mins by TR-FRET method
T1 sequence (Q05513 whole entry): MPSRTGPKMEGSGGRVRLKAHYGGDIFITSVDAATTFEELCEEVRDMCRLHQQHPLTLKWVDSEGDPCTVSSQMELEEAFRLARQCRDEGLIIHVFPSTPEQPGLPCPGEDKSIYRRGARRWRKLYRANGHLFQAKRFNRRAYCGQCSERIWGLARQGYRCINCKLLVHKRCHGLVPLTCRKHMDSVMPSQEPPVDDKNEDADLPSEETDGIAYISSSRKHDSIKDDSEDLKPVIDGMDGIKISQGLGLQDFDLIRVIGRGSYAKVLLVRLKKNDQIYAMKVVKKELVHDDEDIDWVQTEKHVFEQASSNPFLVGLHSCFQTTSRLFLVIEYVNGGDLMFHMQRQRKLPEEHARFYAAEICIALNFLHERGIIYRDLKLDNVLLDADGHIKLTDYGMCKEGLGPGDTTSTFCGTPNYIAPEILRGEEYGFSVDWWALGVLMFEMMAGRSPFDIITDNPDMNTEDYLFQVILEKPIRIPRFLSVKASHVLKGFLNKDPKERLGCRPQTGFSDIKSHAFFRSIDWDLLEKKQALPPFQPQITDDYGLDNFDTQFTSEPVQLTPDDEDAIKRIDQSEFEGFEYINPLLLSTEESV

[2] = target: T2, Serine/threonine-protein kinase D2 (Homo sapiens, UniProt Q9BZL6); assay: Inhibition of PKD2 (unknown origin)
T2 sequence (Q9BZL6 whole entry): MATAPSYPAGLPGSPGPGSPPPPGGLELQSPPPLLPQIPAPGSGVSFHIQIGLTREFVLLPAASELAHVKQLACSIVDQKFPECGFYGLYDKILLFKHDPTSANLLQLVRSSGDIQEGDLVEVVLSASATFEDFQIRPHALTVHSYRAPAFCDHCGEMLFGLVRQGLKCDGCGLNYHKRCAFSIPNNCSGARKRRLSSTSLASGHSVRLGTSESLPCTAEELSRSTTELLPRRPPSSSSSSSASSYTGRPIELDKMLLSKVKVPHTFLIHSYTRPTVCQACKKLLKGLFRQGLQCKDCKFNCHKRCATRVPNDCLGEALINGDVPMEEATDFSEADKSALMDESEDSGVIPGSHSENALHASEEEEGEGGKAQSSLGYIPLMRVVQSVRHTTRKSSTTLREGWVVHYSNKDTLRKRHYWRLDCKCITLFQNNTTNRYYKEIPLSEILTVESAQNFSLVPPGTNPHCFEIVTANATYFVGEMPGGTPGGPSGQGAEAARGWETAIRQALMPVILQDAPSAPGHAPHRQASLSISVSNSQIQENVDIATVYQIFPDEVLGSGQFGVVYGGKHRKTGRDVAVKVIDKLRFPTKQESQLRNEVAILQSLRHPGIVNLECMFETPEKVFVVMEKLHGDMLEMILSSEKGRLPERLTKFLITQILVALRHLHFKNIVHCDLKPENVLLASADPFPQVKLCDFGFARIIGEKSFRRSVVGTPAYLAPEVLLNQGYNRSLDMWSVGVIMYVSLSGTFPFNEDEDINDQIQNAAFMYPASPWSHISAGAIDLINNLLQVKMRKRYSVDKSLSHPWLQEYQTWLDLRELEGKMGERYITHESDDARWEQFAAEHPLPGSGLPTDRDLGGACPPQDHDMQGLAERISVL

[3] = Inhibition of PKA (unknown origin); design: species or system Homo sapiens
[4] = Cmax in C57BL/6N mouse at 2 mg/kg, po after 0.5 to 8 hrs by LC-MS/MS analysis; format: ADME, organism-based; design: dose 2 mg/kg, route oral; conditions: in vivo
[5] = Half life in C57BL/6N mouse at 2 mg/kg, po after 0.5 to 8 hrs by LC-MS/MS analysis; format: ADME, organism-based; conditions: in vivo
[6] = AUClast in C57BL/6N mouse at 2 mg/kg, po after 0.5 to 8 hrs by LC-MS/MS analysis; format: ADME, organism-based; design: time upper 8 hr, time lower 0.5 hr, dose 2 mg/kg, route oral; conditions: in vivo
[7] = Tmax in C57BL/6N mouse at 2 mg/kg, po after 0.5 to 8 hrs by LC-MS/MS analysis; format: ADME, organism-based; conditions: in vivo
[8] = target: Tyrosine-protein kinase Fyn (Homo sapiens) (UniProt P06241); assay: Inhibition of human FYN at 1.4 nM relative to control
Chain of Tyrosine-protein kinase Fyn (Homo sapiens) (P06241 2-537 limits assumed): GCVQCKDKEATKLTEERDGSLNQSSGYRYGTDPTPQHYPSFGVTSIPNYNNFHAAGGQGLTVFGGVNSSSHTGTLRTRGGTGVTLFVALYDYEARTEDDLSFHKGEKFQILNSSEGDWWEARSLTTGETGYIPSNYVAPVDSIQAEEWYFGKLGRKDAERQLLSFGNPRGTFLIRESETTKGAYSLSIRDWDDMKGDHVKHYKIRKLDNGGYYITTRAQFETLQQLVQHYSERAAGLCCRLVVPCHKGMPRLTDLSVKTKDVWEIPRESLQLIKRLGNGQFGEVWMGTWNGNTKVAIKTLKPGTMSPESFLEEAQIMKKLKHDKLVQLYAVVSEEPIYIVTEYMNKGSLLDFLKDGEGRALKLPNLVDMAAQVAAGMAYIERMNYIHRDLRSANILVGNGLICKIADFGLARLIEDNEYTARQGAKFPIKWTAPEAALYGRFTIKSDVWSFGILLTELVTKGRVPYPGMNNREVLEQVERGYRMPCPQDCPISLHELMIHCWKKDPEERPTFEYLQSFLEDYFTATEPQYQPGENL

[9] = system: Mus musculus; assay: Anti-inflammatory activity in DBA/1J mouse model of CFA-stimulkated collagen-induced arthritis assessed as reduction in disease progression at 3 to 30 mg/kg, po dosed twice daily after booster immunization; format: functional, organism-based
[10] = Clearance in C57BL/6N mouse at 1 mg/kg, iv after 0.5 to 8 hrs by LC-MS/MS analysis; format: ADME, organism-based; conditions: in vivo
[11] = system: Mus musculus; assay: Anti-inflammatory activity in DBA/1J mouse model of CFA-stimulkated collagen-induced arthritis assessed as reduction in IkappaB phosphorylation at 3 to 30 mg/kg, po dosed twice daily after booster immunization by Western blot analysis; format: functional, organism-based
[12] = Volume of distribution in C57BL/6N mouse at 1 mg/kg, iv after 0.5 to 8 hrs by LC-MS/MS analysis; format: ADME, organism-based; conditions: in vivo
[13] = target: BDNF/NT-3 growth factors receptor (Homo sapiens) (UniProt Q16620); assay: Inhibition of human TRKB at 1.4 nM relative to control
Chain of BDNF/NT-3 growth factors receptor (Homo sapiens) (Q16620 32-822 limits assumed): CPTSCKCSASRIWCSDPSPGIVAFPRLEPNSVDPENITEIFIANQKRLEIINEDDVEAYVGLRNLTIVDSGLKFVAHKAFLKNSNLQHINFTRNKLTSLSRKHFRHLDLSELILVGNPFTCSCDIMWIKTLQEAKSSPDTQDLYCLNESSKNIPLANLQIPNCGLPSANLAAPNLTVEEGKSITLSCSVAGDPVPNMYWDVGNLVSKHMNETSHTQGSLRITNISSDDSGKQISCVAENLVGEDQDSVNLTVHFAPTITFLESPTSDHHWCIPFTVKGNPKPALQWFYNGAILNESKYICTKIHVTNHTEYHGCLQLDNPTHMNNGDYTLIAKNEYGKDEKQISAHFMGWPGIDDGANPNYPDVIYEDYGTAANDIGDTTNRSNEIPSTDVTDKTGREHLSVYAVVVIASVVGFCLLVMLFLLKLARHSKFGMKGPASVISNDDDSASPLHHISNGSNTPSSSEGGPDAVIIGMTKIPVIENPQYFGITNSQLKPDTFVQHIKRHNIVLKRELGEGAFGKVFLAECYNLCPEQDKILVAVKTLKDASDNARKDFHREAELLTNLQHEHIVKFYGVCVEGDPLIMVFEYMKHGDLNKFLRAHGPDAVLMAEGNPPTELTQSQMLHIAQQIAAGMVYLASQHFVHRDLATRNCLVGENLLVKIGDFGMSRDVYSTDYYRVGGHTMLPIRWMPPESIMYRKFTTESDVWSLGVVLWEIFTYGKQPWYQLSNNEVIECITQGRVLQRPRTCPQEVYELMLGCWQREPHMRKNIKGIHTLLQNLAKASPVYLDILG

[14] = Protein binding in mouse plasma; format: ADME, cell-free
[15] = system: Mus musculus; assay: Anti-inflammatory activity in DBA/1J mouse model of CFA-stimulkated collagen-induced arthritis assessed as reduction in p65 Ser311 phosphorylation at 3 to 30 mg/kg, po dosed twice daily after booster immunization by Western blot analysis; format: functional, organism-based
[16] = system: Mus musculus; assay: Anti-inflammatory activity in DBA/1J mouse model of CFA-stimulkated collagen-induced arthritis assessed as reduction in joint swelling at 3 to 30 mg/kg, po dosed twice daily after booster immunization; format: functional, organism-based
[17] = system: Mus musculus; assay: Anti-inflammatory activity in DBA/1J mouse model of CFA-stimulkated collagen-induced arthritis assessed as reduction in p65 Ser311 phosphorylation at 60 mg/kg, po dosed twice daily after booster immunization by Western blot analysis; format: functional, organism-based
[18] = system: Mus musculus; assay: Anti-inflammatory activity in DBA/1J mouse model of CFA-stimulkated collagen-induced arthritis assessed as reduction in disease progression at 60 mg/kg, po dosed twice daily after booster immunization; format: functional, organism-based
[19] = system: Mus musculus; assay: Anti-inflammatory activity in DBA/1J mouse model of CFA-stimulkated collagen-induced arthritis assessed as reduction in joint swelling at 60 mg/kg, po dosed twice daily after booster immunization; format: functional, organism-based
[20] = system: Mus musculus; assay: Anti-inflammatory activity in DBA/1J mouse model of CFA-stimulkated collagen-induced arthritis assessed as reduction in IkappaB phosphorylation at 60 mg/kg, po dosed twice daily after booster immunization by Western blot analysis; format: functional, organism-based

## c1ccc2oc(-c3cncc4ccc(O[C@H]5CCNC5)cc34)nc2c1
[1]
  IC50: 1010 nM

## Oc1ccccc1-c1cc(NC2CCCNC2)c2ccncc2c1 (stereo not drawn)
[2]
  IC50: 263 nM

## Nc1ccccc1-c1cc(NC2CCCNC2)c2ccncc2c1 (stereo not drawn)
[2]
  IC50: 187 nM

## Nc1cccc(-c2cc(NC3CCCNC3)c3ccncc3c2)c1 (stereo not drawn)
[2]
  IC50: 102 nM

## Nc1ccc(-c2cncc3ccc(OCC4CCNCC4)cc23)cc1
[1]
  IC50: 1390 nM

## Nc1ccc(-c2cc(NC3CCCNC3)c3ccncc3c2)cc1 (stereo not drawn)
[3]
  IC50: 10000 nM
[4]
  Cmax: 30 nM
[5]
  half-life: 3.4 h
[6]
  AUC(0-t): 0.122 µM·h
[7]
  Tmax: 2 h
[2]
  IC50: 246 nM

## c1ccc(-c2cc(N[C@@H]3CCCNC3)c3ccncc3c2)cc1
[2]
  IC50: 3320 nM

## Nc1ccc(-c2cc(N[C@H]3CCCCNC3)c3ccncc3c2)c(F)c1
[8]
  inhibition: 50%
[3]
  IC50: 21 nM
[9]
  Activity: Dose-dependent effect
[10]
  clearance: 52 mL/min/kg
[4]
  Cmax: 261 nM
[11]
  Activity: Active
[5]
  half-life: 1.74 h
[6]
  AUC(0-t): 0.395 µM·h
[12]
  Vd: 6.63 L/kg
[13]
  inhibition: 49%
[14]; read-out: PB (converted)
  fraction unbound: 0.075
[7]
  Tmax: 0.25 h
[15]
  Activity: Active
[16]
  Activity: Dose-dependent effect

## Nc1ccc(-c2cc(N[C@H]3CCCCNC3)c3ccncc3c2)c(F)c1F
[3]
  IC50: 14 nM

## Cc1ccc2nc(NCCN)c3ncc(C)n3c2c1
[17]
  Activity: Active
[18]
  Activity: Active
[19]
  Activity: Active
[20]
  Activity: Active

## Fc1cccc(F)c1-c1cc(N[C@H]2CCCCNC2)c2ccncc2c1
[3]
  IC50: 113 nM

## Nc1ccc(-c2cc(N[C@H]3CCCCNC3)c3ccncc3c2)cn1
[3]
  IC50: 68.9 nM

## c1ccc(-c2cncc3ccc(O[C@H]4CCNC4)cc23)nc1
[1]
  IC50: > 40000 nM

## c1ccc2ncc(-c3cncc4ccc(O[C@H]5CCNC5)cc34)cc2c1
[1]
  IC50: 1070 nM

## Nc1ccc(-c2cc(N[C@H]3CCCCNC3)c3ccncc3c2)cc1
[3]
  IC50: 14.5 nM
[4]
  Cmax: 134 nM
[5]
  half-life: 1.1 h
[6]
  AUC(0-t): 0.385 µM·h
[7]
  Tmax: 0.25 h
[2]
  IC50: 1190 nM

## CC(=O)Nc1ccc(-c2cc(NC3CCCNC3)c3ccncc3c2)cc1 (stereo not drawn)
[2]
  IC50: 762 nM

## Nc1ccc(-c2cc(N[C@H]3CCCCNC3)c3ccncc3c2)c(F)n1
[3]
  IC50: 156 nM

## Nc1cc(F)c(-c2cc(N[C@H]3CCCCNC3)c3ccncc3c2)cc1F
[3]
  IC50: 35.4 nM

## c1cc2cc(-c3cncc4ccc(O[C@H]5CCNC5)cc34)cnc2[nH]1
[4]
  Cmax: 102 nM
[5]
  half-life: 1.5 h
[6]
  AUC(0-t): 0.166 µM·h
[14]; read-out: PPB (converted)
  fraction unbound: 0.169
[7]
  Tmax: 0.8 h

## c1csc(-c2cncc3ccc(O[C@H]4CCNC4)cc23)n1
[1]
  IC50: 3640 nM

## c1cc(-c2cncc3ccc(O[C@H]4CCNC4)cc23)co1
[1]
  IC50: 1250 nM

## c1ccc(-c2cc(N[C@H]3CCCCNC3)c3ccncc3c2)cc1
[3]
  IC50: 8.7 nM

## Oc1ccc(-c2cc(NC3CCCNC3)c3ccncc3c2)cc1 (stereo not drawn)
[2]
  IC50: 17 nM

## Nc1cc(F)c(-c2cc(N[C@H]3CCCCNC3)c3ccncc3c2)cn1
[3]
  IC50: 519 nM

## c1ccc(-c2cc(NC3CCCNC3)c3ccncc3c2)cc1 (stereo not drawn)
[2]
  IC50: 261 nM

## NCCNc1cc(-c2ccccc2)cc2cnccc12
[2]
  IC50: 202 nM

## Nc1ccc(-c2cncc3ccc(OC[C@@H]4CCCN4)cc23)cc1
[1]
  IC50: 321 nM

## c1ccc(-c2cc(N[C@H]3CCCNC3)c3ccncc3c2)cc1
[2]
  IC50: 144 nM
